Tests used:
BALB/c mice [1] = assay: Total IgG1 and IgG2a after immunization (sandwich ELISA); format: in vivo; settings: OVA 100 μg alone
Description: (§1) Male BALB/c mice were immunized subcutaneously with OVA 100 μg alone or with OVA 100 μg dissolved in saline containing analogues (7.5, 15 or 30 μg) on Days 1 and 15. Sera were collected 2 weeks after the last immunization. Total IgG1 and IgG2a antibodies in the sera were measured by Sandwich ELISA. The values are presented as log 2 titre.

BALB/c mice [2] = assay: OVA-specific IgG after immunization (indirect ELISA); format: in vivo; settings: OVA 100 μg alone, s.c. Days 1 and 15, sera 2 weeks after last immunization
Description: as §1, with “OVA-specific IgG” for “Total IgG1 and IgG2a”, “an Indirect” for “Sandwich”

OVA: Ovalbumin (OVA) antigen, given alone
Log(2) Total IgG1 Antibody Titre (BALB/c mice [1]): 14.39
Log(2) Total IgG2a Antibody Titre (BALB/c mice [1]): 11.89
Log(2) IgG Antibody Titre (BALB/c mice [2]): 12.64

— patent publication US10576147B2, “Muramyl peptide derivative compound, synthesis and uses thereof” (BHARAT BIOTECH INTERNATIONAL LIMITED, priority 2015, dated 2020)
